Measured values taken from patent publication US12115170B2, “Compositions and methods of clostridiodides difficile treatment, decolonization, and prevention” (Wisconsin Alumni Research Foundation, priority 2021, dated 2024).
≈ marks a conversion by molar mass, not a printed value. Like-named read-outs stand apart in the source and are kept apart here.

Tests used:
[1] = system: C. difficile spores (all strains); assay: Spore washing and germination, all strains; conditions: 0.5 mg/ml docusate exposure
[2] = system: C. difficile ATCC 1870 vegetative cells; assay: Time-kill curves, T-CFU versus S-CFU, ATCC 1870; format: cell-based, Clostridioides difficile
C. difficile VPI 10463 [3] = assay: CDI murine model, severe model; format: in vivo, C57BL/6 mice
[4] = system: C. difficile ATCC 700057 (VPI 11186); assay: MIC by broth microdilution, control strain ATCC 700057; format: cell-based, Clostridioides difficile
Description: (§1) Susceptibility testing: The minimum inhibitory concentration (MIC), defined as the lowest concentration of an antimicrobial that will inhibit the visible growth of a microorganism, was determined for all isolates. […] Microwell plates containing omadacycline and BHI were used on the same day as their creation, and all media were reduced for 24 h prior. Media used to inoculate plates were created by suspending 24-h colonies in BHI to a McFarland standard of 0.5, which was added to each well, sufficient to about 1×10^6 CFU/ml. A total volume of […] was used, and plates were read after 24 h of incubation in the anaerobic hood. The lowest concentration without growth was determined to be the MIC. In accordance with CLSI recommendations, C. difficile ATCC 700057 was used as a control for each plate.

[5] = system: C. difficile 4118 (ATCC 1870); assay: MIC by broth microdilution, ATCC 1870; format: cell-based; conditions: Clostridioides difficile
Description: as §1

[6] = system: C. difficile spores (four strains tested); assay: Time-kill curves, S-CFU, four strains tested; format: cell-based, Clostridioides difficile
[7] = system: C. difficile 630 (ATCC BAA-1382); assay: MIC by broth microdilution, 630; format: cell-based; conditions: Clostridioides difficile
Description: as §1

C. difficile VPI 10463 [8] = assay: CDI murine model, non-severe model; format: in vivo, C57BL/6 mice
[9] = system: C. difficile strains used in this study; assay: MIC by broth microdilution, range over the strains used in this study; format: cell-based; conditions: Clostridioides difficile, read-out: MICs
Description: as §1

[10] = system: C. difficile VPI 10463 (ATCC 43255); assay: MIC by broth microdilution, VPI 10463; format: cell-based; conditions: Clostridioides difficile
Description: as §1

[11] = system: C. difficile ICCD 0715 (clinical strain); assay: MIC by broth microdilution, ICCD 0715; format: cell-based; conditions: Clostridioides difficile, 24 h
Description: as §1

[12] = cited from earlier work; for Fecal concentration: clinical dosing, oral
[13] = ATCC 700057 (VPI 11186), R038, reduced BHI, 24 h, highest of replicates
[14] = non-severe model, environmental contamination

## CCCCC(CC)COC(=O)CC(C(=O)OCC(CC)CCCC)S(=O)(=O)O (centres unmarked) [docusate]
[1]
  Percent germination compared to all other treatments: highest percent germination

## CN[C@H](CC(C)C)C(=O)N[C@H]1C(=O)N[C@@H](CC(N)=O)C(=O)N[C@H]2C(=O)N[C@H]3C(=O)N[C@H](C(=O)N[C@H](C(=O)O)c4cc(O)cc(O)c4-c4cc3ccc4O)[C@H](O)c3ccc(c(Cl)c3)Oc3cc2cc(c3O[C@@H]2O[C@H](CO)[C@@H](O)[C@H](O)[C@H]2O[C@H]2C[C@](C)(N)[C@H](O)[C@H](C)O2)Oc2ccc(cc2Cl)[C@H]1O [Vancomycin, vancomycin]
[2]
  Killing of vegetative cells (T-CFU equaled S-CFU): effective at killing vegetative cells
C. difficile VPI 10463 [3]; mouse, in vivo
  Median toxin A and B production, day 2: significantly higher
  Toxin amounts, day 1: similar
  Weight loss and clinical scoring: higher
C. difficile VPI 10463 [3]; mouse, in vivo, po
  Day 15 survival: 13.3%
[4]; [13]
  MIC: 2 µg/mL (≈ 1.38 µM)
[4]; Clostridioides difficile, ATCC700057, 24 h
  MIC: 2 µg/mL (≈ 1.38 µM)
[5]; ATCC1870, 24 h
  MIC: 2 µg/mL (≈ 1.38 µM)
[6]
  Effect on S-CFU: did not affect S-CFU
[7]; ATCCBAA1382, 24 h
  MIC: 4 µg/mL (≈ 2.76 µM)
C. difficile VPI 10463 [8]; mouse, in vivo
  Clinical scoring and weight loss (disease): more disease
  Final survival: 60%
  Final survival, survivors/total mice: 6/10
  Mice positive for C. difficile spores (spore shedding), day 15: 100%
  Mice succumbed to rCDI: 20%
  Mortality: 40%
  Positive cage swab rate, day 10: 8.3%
  Positive cage swabs, day 13: 25%
  Toxin amounts, day 10 and 13: higher
[9]
  MIC: 1 to 4 µg/mL (≈ 0.69 to 2.76 µM)
[10]; ATCC43255, 24 h
  MIC: 1 µg/mL (≈ 0.69 µM)
[11]
  MIC: 4 µg/mL (≈ 2.76 µM)
[12]
  Fecal concentration: 2,000 mg/liter

## CN(C)c1cc(CNCC(C)(C)C)c(O)c2c1C[C@H]1C[C@H]3[C@H](N(C)C)C(O)=C(C(N)=O)C(=O)[C@@]3(O)C(O)=C1C2=O [Omadacycline, omadacycline]
[2]; ATCC 1870, 24 to 96 h, with or without germinants
  Killing of vegetative cells (T-CFU equaled S-CFU): effective at killing vegetative cells
C. difficile VPI 10463 [3]; mouse, in vivo
  Toxin amounts, day 1: similar
C. difficile VPI 10463 [3]; severe model, treatment started 30 hours after spore gavage, once daily until day 5, OMC 0.25 mg, VAN 1.5 mg oral gavage
  Day 15 survival: 60%
[4]; [13]
  MIC: 0.125 µg/mL (≈ 0.225 µM)
[4]; Clostridioides difficile, ATCC700057, ATCC 700057 (VPI 11186), R038, reduced BHI, 24 h, highest of replicates, read-out: MIC
  MIC: 0.125 µg/mL (≈ 0.225 µM)
[5]; ATCC1870, 4118 (ATCC 1870), R027, reduced BHI, 24 h, read-out: MIC
  MIC: 0.031 µg/mL (≈ 0.0557 µM)
[6]; antibiotic in BHI without germinants, throughout the treatment period (96 h), four strains
  Effect on S-CFU: did not affect S-CFU
[7]; ATCCBAA1382, 630 (ATCC BAA-1382), R012, reduced BHI, 24 h, read-out: MIC
  MIC: 0.125 µg/mL (≈ 0.225 µM)
C. difficile VPI 10463 [8]; by day 10
  Mice succumbed to rCDI: 20%
C. difficile VPI 10463 [8]; mouse, in vivo
  Final survival, survivors/total mice: 6/10
  Mortality: 40%
C. difficile VPI 10463 [8]; non-severe model
  Mice positive for C. difficile spores (spore shedding), day 15: 60%
C. difficile VPI 10463 [8]; non-severe model, after clindamycin-induced relapse (days 10-12)
  Final survival: 60%
C. difficile VPI 10463 [8]; [14]
  Positive cage swab rate, day 10: 8.3%
  Positive cage swabs, day 13: no positive swabs
[9]; range for the strains used in this study
  MIC: 0.031 to 0.125 µg/mL (≈ 0.0557 to 0.225 µM)
[10]; ATCC43255, VP1 10463 (ATCC 43255), R087, reduced BHI, 24 h, read-out: MIC
  MIC: 0.063 µg/mL (≈ 0.113 µM)
[11]; ICCD 0715 (clinical strain), R027, reduced BHI, read-out: MIC
  MIC: 0.031 µg/mL (≈ 0.0557 µM)
[12]
  Fecal concentration: approximately 430 mg/liter
[12]; in vivo
  Fecal excretion: 81%
